Like-named read-outs stand apart in the source and are kept apart here.
How the values were obtained:
[1] = target: T1, Cy5-labeled Taspase 1 loop (Homo sapiens, UniProt Q9H6P5); assay: Fluorescence titration of Cy5-labeled Taspase 1 loop; assay type: binding; settings: for Kd: 1:1 binding model, n = 3, read-out: KD TW (fluorescence titration, loop)
T1 construct: Cy5-labeled NLS-bearing loop peptide (aa S181-D233); purchased GeneCust; host or cells: synthetic peptide
T1 sequence (Q9H6P5 181-233): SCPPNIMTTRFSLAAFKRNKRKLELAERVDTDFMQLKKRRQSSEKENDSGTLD
Description: Fluorescence titration was conducted with a Taspase 1 loop with an N-terminal […] synthesized by GeneCust (Sequence: Cy5-[…]; NLS in bold) as described.[9,10] The fluorescence anisotropy assay was modified based on previously established protocols.[51] Measurements were conducted using an FP-8300 JASCO fluorescence spectrometer (JASCO GmbH). […] Binding curves of the average data were fitted with GraphPad Prism 10.4 (GraphPad) using the quadratic binding equation for one-site specific binding model: [drawing 4] with r = anisotropy, r0 = anisotropy without protein, rmax = maximum anisotropy, F = fluorescent probe (Cy5-labeled peptide) concentration, x = titrant concentration, KD = dissociation constant. All fitting curves have R^2-values between 0.88 and 0.98.
Since Importin binding critically depends on the basic NLS clusters within the Taspase 1 loop, pull-down assays typically provide a reliable readout for tweezer interaction with the relevant lysine and arginine residues. Alternatively, loop binding can be evaluated through ligand titration experiments using a fluorescently labeled Taspase 1 loop (Fig. 5).[10] […] As a result, potential effects related to the orientation of the flexible loop within the context of the globular protein are not captured. Of note, the slight increase in signal at the highest compound concentration likely reflects non-specific effects such as weak autofluorescence, inner filter artifacts, or molecular crowding, highlighting limitations of the assay at this range. Despite these effects, the data points were retained to provide a complete representation of the assay response.
Fig. 5 TWAAP ligands directly address the Taspase 1 loop. Fluorescence titrations were performed using a Cy5-labeled Taspase 1 loop and switchable tweezers. […] Fluorescence intensity in solvent-treated samples was set to 100%, with ligand-treated samples normalized to this value. […] As a control, all ligands were added to Cy5 (without peptide) at their highest concentration, resulting in neglectable changes in fluorescence. Data represent the mean ± SD of three independent experiments. Composed with https://Biorender.com.

wildtype Taspase 1 = target: T2, wildtype Taspase 1 (Homo sapiens, UniProt Q9H6P5); assay: Recombinant cleavage assay with GST-MLL2700–2850-GFP-His substrate; assay type: biochemical; settings: for IC50: ligand conc. 10 - 100 µM, 200 nM Taspase 1, 5 µM substrate, n = 3, read-out: IC50 TW (recombinant cleavage, full-length protein); for Difference in inhibitory activity between E and Z isomers (times greater potency of E isomer): particularly at 50 μM
T2 sequence (Q9H6P5 1-233 limits assumed): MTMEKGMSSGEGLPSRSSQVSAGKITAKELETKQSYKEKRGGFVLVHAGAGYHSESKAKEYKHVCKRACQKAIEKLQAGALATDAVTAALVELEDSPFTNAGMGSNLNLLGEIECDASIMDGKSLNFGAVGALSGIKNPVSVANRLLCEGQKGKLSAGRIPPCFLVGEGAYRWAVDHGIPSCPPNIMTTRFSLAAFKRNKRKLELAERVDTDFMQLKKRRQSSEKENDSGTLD
T2 sequence (Q9H6P5 234-420 limits assumed): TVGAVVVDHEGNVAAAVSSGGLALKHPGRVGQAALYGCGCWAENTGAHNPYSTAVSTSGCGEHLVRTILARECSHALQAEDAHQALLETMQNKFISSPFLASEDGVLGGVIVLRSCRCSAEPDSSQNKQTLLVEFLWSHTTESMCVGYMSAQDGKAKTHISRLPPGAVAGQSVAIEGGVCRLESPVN
Description: The recombinant cleavage assay employing the recombinant fusion protein GST-MLL2700–2850-GFP-His, which contains the CS2 cleavage site of the Mixed-lineage leukemia (MLL) protein as a substrate for Taspase 1, was performed as described.[9,10]
Given that Taspase 1's active site is positioned directly at the base of the loop harboring the bipartite NLS (Fig. 1A, and Fig. S1), it is reasonable to expect that our photoswitchable tweezer constructs, which recognize this signal, might also influence proteolytic activity - similar to the inhibition observed with our “first-generation” multivalent ligands.[10] In principle the presence of a sterically demanding artificial ligand may hinder or even completely block substrate binding and subsequent cleavage. To assess this, we employed a well-established in vitro cleavage assay using a recombinant, truncated fusion protein harboring the second cleavage site (CS2) of the Mixed Lineage Leukemia 1 (MLL1) protein, a bona fide Taspase 1 substrate.[39] In this assay, the cleaved and uncleaved substrate fractions of the GST-MLL2700–2850-GFP-His substrate were separated on a Coomassie-stained gel, and signal intensities of the different cleavage bands were quantified (Fig. 7, Fig. S8, and Fig. S9). The addition of recombinant, proteolytically active Taspase 1 (200 nM) led to efficient substrate cleavage, which was inhibited by all photoswitchable tweezer constructs in a concentration-dependent manner. IC50 values for the full series of switchable tweezer constructs ranged from 20 to 50 μM, with measurements taken separately for both E and Z isomers Fig. (S9).
Fig. 7 Switchable tweezer constructs interfere with Taspase 1 proteolytic activity. Cleavage assay utilizing the cleavage site CS2 from the natural substrate MLL (GST-MLL2700–2850-GFP-His) and active wildtype Taspase 1. Inhibition of proteolysis was evaluated by the relative amount of uncleaved substrate. Briefly, 5 μM recombinant substrate were incubated with 200 nM wildtype Taspase 1-His and increasing concentrations of TWAAP0-4 (10 - 100 μM), pre-irradiated with either UV light (365 nm, violet), or green light (520 nm, green), or solvent only. Proteolytic activity in solvent-treated samples was set to 100%, and data from TWAAP-treated samples were normalized accordingly. IC50 values were determined by densitometric quantification of the cleavage bands from the gels shown in Fig. S9, followed by nonlinear curve fitting. These values were also used to generate the summary bar plots shown on the right. Data are shown as the mean ± SD from three independent experiments. Composed with https://BioRender.com.
Figure S8. Photoswitchable TWAAP constructs interfere with Taspase 1’s proteolytic activity.
Cleavage assay utilizing the cleavage site CS2 from the natural substrate MLL (GST -MLL2700-2850-GFP-His, 70 kDa) and active wildtype Taspase 1. Inhibition of proteolysis was evaluated by the relative amount of uncleaved in relation to cleaved substrate (50 kDa and 20 kDa, respectively). Briefly, 5 µM recombinant substrate were incubated with 200 nM wildtype Taspase 1-His and increasing concentrations (10 - 100 µM) of indicated TWAAP irradiated with UV (365 nm, left gel panels) or green light (520 nm, right gel panels). Solvent-treated samples (referred to as untreated, un.) served as reference, and as additional controls, Taspase 1 (-T) was omitted or only Taspase 1 (TASP1) was applied. Representative images of three independent experiments are shown. Composed with […]
Figure S9. Photoswitchable TWAAB constructs interfere with Taspase 1’s proteolytic activity. Cleavage assay utilizing the cleavage site CS2 from the natural substrate MLL (GST -MLL2700-2850-GFP-His, 70 kDa) and active wildtype Taspase 1. Inhibition of proteolysis was evaluated by the relative amount of uncleaved in relation to cleaved substrate (50 kDa and 20 kDa, respectively).
Briefly, 5 µM recombinant substrate were incubated with 200 nM wildtype Taspase 1-His and […]

`Cc1nn(-c2ccc(C#Cc3ccc(-c4cn(CCOP(=O)(O)Oc5c6c(c(OP(=O)(O)O)c7c5C5CC7c7cc8c(cc75)C5CC8c7ccccc75)C5CC6c6cc7c(cc65)C5CC7c6ccccc65)nn4)cc3)cc2)c(C)c1N=Nc1ccc(C#Cc2ccc(-c3cn(CCOP(=O)(O)Oc4c5c(c(OP(=O)(O)O)c6c4C4CC6c6cc7c(cc64)C4CC7c6ccccc64)C4CC5c5cc6c(cc54)C4CC6c5ccccc54)nn3)cc2)cc1` [TWAAP4] was tested, and the Kd ([1]; E isomer) was 0.8 µM, the “Loop binding, in words” value ([1]; Z isomer) was “only a weak loop binder” and the Kd ([1]; Z isomer) was 4.9 µM. For the same compound, the IC50 (wildtype Taspase 1; E isomer) was 24.7 µM, the IC50 (wildtype Taspase 1; Z isomer) was 37.9 µM and the “Difference in inhibitory activity between E and Z isomers (times greater potency of E isomer)” value (wildtype Taspase 1) was 1.5–1.7 times.

`O=P(O)(O)Oc1c2c(c(OP(=O)(O)OCCn3cc(-c4ccc(N=Nc5ccc(-c6cn(CCOP(=O)(O)Oc7c8c(c(OP(=O)(O)O)c9c7C7CC9c9cc%10c(cc97)C7CC%10c9ccccc97)C7CC8c8cc9c(cc87)C7CC9c8ccccc87)nn6)cc5)cc4)nn3)c3c1C1CC3c3cc4c(cc31)C1CC4c3ccccc31)C1CC2c2cc3c(cc21)C1CC3c2ccccc21` [TWAB1] was tested, and the IC50 (wildtype Taspase 1; E isomer) was 22.3 µM, the IC50 (wildtype Taspase 1; Z isomer) was 17.9 µM and the “Difference in inhibitory activity between E and Z isomers (times greater potency of E isomer)” value (wildtype Taspase 1) was “no difference”.

In the case of `Cc1nn(-c2ccc(-n3cc(CCOP(=O)(O)Oc4c5c(c(OP(=O)(O)O)c6c4C4CC6c6cc7c(cc64)C4CC7c6ccccc64)C4CC5c5cc6c(cc54)C4CC6c5ccccc54)nn3)cc2)c(C)c1N=Nc1ccc(-n2cc(CCOP(=O)(O)Oc3c4c(c(OP(=O)(O)O)c5c3C3CC5c5cc6c(cc53)C3CC6c5ccccc53)C3CC4c4cc5c(cc43)C3CC5c4ccccc43)nn2)cc1` [TWAAP0], the Kd ([1]; E isomer) is reported as 0.2 µM, the Kd ([1]; Z isomer) is reported as 0.3 µM and the IC50 (wildtype Taspase 1; E isomer) is reported as 25.9 µM. For the same compound, the IC50 (wildtype Taspase 1; Z isomer) was 44.6 µM and the “Difference in inhibitory activity between E and Z isomers (times greater potency of E isomer)” value (wildtype Taspase 1) was 1.5–1.7 times.

For `Cc1nn(Cc2cn(CCOP(=O)(O)Oc3c4c(c(OP(=O)(O)O)c5c3C3CC5c5cc6c(cc53)C3CC6c5ccccc53)C3CC4c4cc5c(cc43)C3CC5c4ccccc43)nn2)c(C)c1N=Nc1ccc(-c2cn(CCOP(=O)(O)Oc3c4c(c(OP(=O)(O)O)c5c3C3CC5c5cc6c(cc53)C3CC6c5ccccc53)C3CC4c4cc5c(cc43)C3CC5c4ccccc43)nn2)cc1` [TWAAP2], the Kd ([1]; E isomer) was 0.3 µM, the Kd ([1]; Z isomer) was 0.3 µM and the IC50 (wildtype Taspase 1; E isomer) was 17.5 µM. For the same compound, the IC50 (wildtype Taspase 1; Z isomer) was 25.4 µM and the “Difference in inhibitory activity between E and Z isomers (times greater potency of E isomer)” value (wildtype Taspase 1) was “no difference”.

With `Cc1nn(-c2ccc(-c3cn(CCOP(=O)(O)Oc4c5c(c(OP(=O)(O)O)c6c4C4CC6c6cc7c(cc64)C4CC7c6ccccc64)C4CC5c5cc6c(cc54)C4CC6c5ccccc54)nn3)cc2)c(C)c1N=Nc1ccc(-c2ccc(-c3cn(CCOP(=O)(O)Oc4c5c(c(OP(=O)(O)O)c6c4C4CC6c6cc7c(cc64)C4CC7c6ccccc64)C4CC5c5cc6c(cc54)C4CC6c5ccccc54)nn3)cc2)cc1` [TWAAP3] the Kd ([1]; E isomer) was 0.4 µM, the Kd ([1]; Z isomer) was 0.6 µM and the IC50 (wildtype Taspase 1; E isomer) was 49.4 µM. For the same compound, the IC50 (wildtype Taspase 1; Z isomer) was 41.9 µM and the “Difference in inhibitory activity between E and Z isomers (times greater potency of E isomer)” value (wildtype Taspase 1) was “no difference”.

Reference: paper PMC12419465, “Photoresponsive molecular tweezers modulate Taspase 1 activity” (RSC Chemical Biology, 2025)
